Laboratory results: paper PMC12396409, “Screening and hit evaluation of a microbial metabolite library against the pathogenic Plasmodium falciparum and Toxoplasma gondii parasites” (International Journal for Parasitology: Drugs and Drug …, 2025)
Read-outs that look alike come from different tables or passages of the source.

Experiments:
[1] = tested on: P. falciparum 3D7 parasites; assay: P. falciparum growth inhibition assay, 1-cycle (72 h treatment), SYBR DNA staining (library screen at 2 μg/mL and dose-response); assay type: cell-based, Plasmodium falciparum; details: for activity at 2 µg/mL: Plasmodium falciparum
[2] = tested on: P. falciparum 3D7 parasites; assay: P. falciparum growth inhibition assay, 2-cycle (120 h treatment), delayed-death screen and dose-response; assay type: cell-based, Plasmodium falciparum; details: for activity at 2 µg/mL: Plasmodium falciparum
[3] = tested on: T. gondii RH strain (RH-Tub-eYFP) tachyzoites; assay: microbe, parasite or virus in culture; assay type: cell-based, Toxoplasma gondii; details: 72 h; for percent parasite growth at 2 µg/mL: Toxoplasma gondii
[4] = P. falciparum 3D7, 72 h, parasite screen at 2 μg/mL, % growth, replicate 1
[5] = P. falciparum 3D7, 72 h, parasite screen at 2 μg/mL, % growth, replicate 2
[6] = P. falciparum 3D7, 120 h, parasite screen at 2 μg/mL, % growth, replicate 1
[7] = P. falciparum 3D7, 120 h, parasite screen at 2 μg/mL, % growth, replicate 2
[8] = T. gondii, parasite screen at 2 μg/mL, % growth, replicate 1
[9] = T. gondii, parasite screen at 2 μg/mL, % growth, replicate 2
[10] = 3D7, 72 h, P. falciparum, 72 h, screen at 2 μg/mL, replicate 1, read-out: Pf_72h_%Growth_Rep1
[11] = 3D7, 72 h, P. falciparum, 72 h, screen at 2 μg/mL, replicate 2, read-out: Pf_72h_%Growth_Rep2
[12] = 3D7, 120 h, P. falciparum, 120 h, screen at 2 μg/mL, replicate 1, read-out: Pf_120h_%Growth_Rep1
[13] = 3D7, 120 h, P. falciparum, 120 h, screen at 2 μg/mL, replicate 2, read-out: Pf_120h_%Growth_Rep2
[14] = T. gondii, screen at 2 μg/mL, replicate 1, read-out: Tg_72h_%Growth_Rep1
[15] = T. gondii, screen at 2 μg/mL, replicate 2, read-out: Tg_72h_%Growth_Rep2
[16] = P. falciparum, 72 h, screen at 2 μg/mL, replicate 1
[17] = P. falciparum, 72 h, screen at 2 μg/mL, replicate 2
[18] = P. falciparum, 120 h, screen at 2 μg/mL, replicate 1
[19] = P. falciparum, 120 h, screen at 2 μg/mL, replicate 2
[20] = T. gondii, screen at 2 μg/mL, replicate 1
[21] = T. gondii, screen at 2 μg/mL, replicate 2
[22] = library screen at 2 μg/mL, 72 h, % growth, replicate 1
[23] = library screen at 2 μg/mL, 72 h, % growth, replicate 2
[24] = library screen at 2 μg/mL, 120 h, % growth, replicate 1
[25] = library screen at 2 μg/mL, 120 h, % growth, replicate 2
[26] = library screen at 2 μg/mL, % growth, replicate 1
[27] = library screen at 2 μg/mL, % growth, replicate 2
[28] = P. falciparum, 72 h, parasite screen 2 μg/mL, % growth, replicate 1
[29] = P. falciparum, 72 h, parasite screen 2 μg/mL, % growth, replicate 2
[30] = P. falciparum, 120 h, parasite screen 2 μg/mL, % growth, replicate 1
[31] = P. falciparum, 120 h, parasite screen 2 μg/mL, % growth, replicate 2
[32] = T. gondii, parasite screen 2 μg/mL, % growth, replicate 1
[33] = T. gondii, parasite screen 2 μg/mL, % growth, replicate 2

C[C@@H]1C[C@H]2CC[C@H](O2)[C@H](C)C(=O)O[C@@H](C)C[C@@H]2CC[C@@H](O2)[C@@H](C)C(=O)O[C@H](C)C[C@H]2CC[C@@H](O2)[C@H](C)C(=O)O[C@@H](C)C[C@@H]2CC[C@@H](O2)[C@@H](C)C(=O)O1 [BIA-N1270]
Pf_72h_%Growth_Rep1 [1, 4]: 6.60% | Pf_72h_%Growth_Rep2 [1, 5]: 4.15% | Pf_120h_%Growth_Rep1 [2, 6]: 46.69% | Pf_120h_%Growth_Rep2 [2, 7]: 11.45% | Tg_72h_%Growth_Rep1 [3, 8]: 4.95% | Tg_72h_%Growth_Rep2 [3, 9]: 0.97%

CN(CC[C@H](N)CC(=O)N[C@H]1C=C[C@H](n2ccc(N)nc2=O)O[C@@H]1C(=O)O)C(=N)N [Blasticidin S]
activity at 2 µg/mL [1, 10]: 4.31% | activity at 2 µg/mL [1, 11]: 2.87% | activity at 2 µg/mL [2, 12]: 5.52% | activity at 2 µg/mL [2, 13]: -7.54% | percent parasite growth at 2 µg/mL [3, 14]: 73.3% | percent parasite growth at 2 µg/mL [3, 15]: 30%

CC[C@H](C)C(=O)[C@@H](C)C1=CC(=O)C2=C(O[C@]3(C)CC[C@H]4O[C@@H](C(C)(C)O)CC[C@]4(C)[C@H]3C2)C1=O [Cochlioquinone B]
activity at 2 µg/mL ([1]; 3D7, P. falciparum, 72 h, screen at 2 μg/mL, replicate 1, read-out: Pf_72h_%Growth_Rep1): 61.4% | activity at 2 µg/mL ([1]; 3D7, P. falciparum, 72 h, screen at 2 μg/mL, replicate 2, read-out: Pf_72h_%Growth_Rep2): 52.9% | activity at 2 µg/mL ([2]; 3D7, P. falciparum, 120 h, screen at 2 μg/mL, replicate 1, read-out: Pf_120h_%Growth_Rep1): 47% | activity at 2 µg/mL ([2]; 3D7, P. falciparum, 120 h, screen at 2 μg/mL, replicate 2, read-out: Pf_120h_%Growth_Rep2): 44.2% | percent parasite growth at 2 µg/mL [3, 14]: 110% | percent parasite growth at 2 µg/mL [3, 15]: 83.8%

O=C1N[C@@H](C[C@@]2(O)c3ccccc3N3C(=O)C[C@@H](c4ccccc4)N[C@H]32)C(=O)N[C@H]1Cc1ccccc1 [Citreoindole]
1) Growth (%) at 72 h ([1]; P. falciparum, 2 μg/mL, 72 h): 27.30% | Pf_72h_%Growth_Rep1 [1, 16]: 25.03% | Pf_72h_%Growth_Rep2 [1, 17]: 29.57% | 2) Growth (%) at 120 h ([2]; P. falciparum, 2 μg/mL, 120 h): 9.52% | Pf_120h_%Growth_Rep1 [2, 18]: 10.68% | Pf_120h_%Growth_Rep2 [2, 19]: 8.36% | 3) Fold change (72 h/120 h) ([2]; P. falciparum, growth at 72 h / growth at 120 h, 2 μg/mL): 2.9 | Tg_72h_%Growth_Rep1 [3, 20]: 97.80% | Tg_72h_%Growth_Rep2 [3, 21]: 86.03%

COC1=C(N)C(=O)c2nc(-c3nc(C(=O)O)c(C)c(-c4cccc(OC)c4O)c3N)ccc2C1=O [Desmethoxystreptonigrin, 10'-]
Pf_72h_%Growth_Rep1 [1, 22]: 2.87% | Pf_72h_%Growth_Rep2 [1, 23]: 4.81% | Pf_120h_%Growth_Rep1 [2, 24]: 0.15% | Pf_120h_%Growth_Rep2 [2, 25]: 8.14% | Tg_72h_%Growth_Rep1 [3, 26]: 4.18% | Tg_72h_%Growth_Rep2 [3, 27]: 4.20%

CC(C)C[C@@H]1NC(=O)[C@@H]2CCCN2C1=O [Cyclo(L-Leu-L-Pro)]
Pf_72h_%Growth_Rep1 [1, 16]: 83.89% | Pf_72h_%Growth_Rep2 [1, 17]: 81.36% | Pf_120h_%Growth_Rep1 [2, 18]: 82.10% | Pf_120h_%Growth_Rep2 [2, 19]: 83.93% | Tg_72h_%Growth_Rep1 [3, 20]: 124.64% | Tg_72h_%Growth_Rep2 [3, 21]: 91.02%

COc1c(Cl)c(O)c(Cl)c(C)c1C(=O)O[C@H]1[C@H](O)C[C@H](O[C@H]2[C@@H](O)CC(=O)O[C@@H]2C)O[C@@H]1C [Flambalactone]
Pf_72h_%Growth_Rep1 [1, 22]: 83.21% | Pf_72h_%Growth_Rep2 [1, 23]: 82.63% | Pf_120h_%Growth_Rep1 [2, 24]: 97.51% | Pf_120h_%Growth_Rep2 [2, 25]: 89.66% | Tg_72h_%Growth_Rep1 [3, 26]: 143.45% | Tg_72h_%Growth_Rep2 [3, 27]: 100.30%

CC(=O)N[C@H]1[C@H](O[C@@H]2c3ccc(c(Cl)c3)Oc3cc4cc(c3O)Oc3ccc(cc3Cl)C[C@H]3NC(=O)[C@H](N)c5ccc(O)c(c5)Oc5cc(O)cc(c5)[C@H](NC3=O)C(=O)N[C@H]4C(=O)N[C@H]3C(=O)N[C@@H]2C(=O)N[C@H](C(=O)O)c2cc(O)cc(O[C@H]4O[C@H](CO)[C@@H](O)[C@H](O)[C@@H]4O)c2-c2cc3ccc2O)O[C@H](CO)[C@@H](O)[C@@H]1O [Teicoplanin A3-1]
Pf_72h_%Growth_Rep1 [1, 16]: 83.89% | Pf_72h_%Growth_Rep2 [1, 17]: 89.40% | Pf_120h_%Growth_Rep1 [2, 18]: 162.68% | Pf_120h_%Growth_Rep2 [2, 19]: 89.82% | Tg_72h_%Growth_Rep1 [3, 20]: 92.73% | Tg_72h_%Growth_Rep2 [3, 21]: 87.18%

CC(=O)OCC12CC(O)C(C)=CC1OC1C(O)C(OC(C)=O)C2(C)C12CO2 (stereo not drawn) [BIA-N1931]
Pf_72h_%Growth_Rep1 [1, 4]: 6.76% | Pf_72h_%Growth_Rep2 [1, 5]: -0.85% | Pf_120h_%Growth_Rep1 [2, 6]: 9.98% | Pf_120h_%Growth_Rep2 [2, 7]: 3.84% | Tg_72h_%Growth_Rep1 [3, 8]: 0.58% | Tg_72h_%Growth_Rep2 [3, 9]: -0.09%

COC1=C(OC)C(=O)[C@@H](C)[C@H](C)C1=O [BIA-G1680]
Pf_72h_%Growth_Rep1 ([1]; P. falciparum 3D7, 72 h, library screen at 2 μg/mL, % growth, replicate 1): 4.48% | Pf_72h_%Growth_Rep2 ([1]; P. falciparum 3D7, 72 h, library screen at 2 μg/mL, % growth, replicate 2): 3.13% | Pf_120h_%Growth_Rep1 ([2]; P. falciparum 3D7, 120 h, library screen at 2 μg/mL, % growth, replicate 1): 27.26% | Pf_120h_%Growth_Rep2 ([2]; P. falciparum 3D7, 120 h, library screen at 2 μg/mL, % growth, replicate 2): 12.29% | Tg_72h_%Growth_Rep1 ([3]; T. gondii RH, library screen at 2 μg/mL, % growth, replicate 1): 146.51% | Tg_72h_%Growth_Rep2 ([3]; T. gondii RH, library screen at 2 μg/mL, % growth, replicate 2): 97.35%

CN(C)[C@@H]1C(O)=C(C(N)=O)C(=O)[C@@]2(O)C(O)=C3C(=O)c4c(O)ccc(Cl)c4[C@@H](O)[C@H]3C[C@@H]12 [Demeclocycline]
activity at 2 µg/mL [1, 10]: 85.8% | activity at 2 µg/mL [1, 11]: 87% | activity at 2 µg/mL [2, 12]: 101% | activity at 2 µg/mL [2, 13]: 94.8% | percent parasite growth at 2 µg/mL [3, 14]: 157% | percent parasite growth at 2 µg/mL [3, 15]: 107%

C[C@@H]1CC[C@H](O)/C=C/C(=O)O[C@H](C)CC[C@H](O)/C=C/C(=O)O1 [Pyrenophorol]
Pf_72h_%Growth_Rep1 [1, 28]: 90.24% | Pf_72h_%Growth_Rep2 [1, 29]: 103.36% | Pf_120h_%Growth_Rep1 [2, 30]: 102.30% | Pf_120h_%Growth_Rep2 [2, 31]: 75.99% | Tg_72h_%Growth_Rep1 [3, 32]: 105.85% | Tg_72h_%Growth_Rep2 [3, 33]: 74.43%

CN(C)[C@@H]1C(O)=C(C(N)=O)C(=O)[C@@]2(O)C(O)=C3C(=O)c4c(O)cccc4[C@@](C)(O)[C@H]3[C@H](O)[C@@H]12 [BIA-O1336]
Pf_72h_%Growth_Rep1 [1, 4]: 45.04% | Pf_72h_%Growth_Rep2 [1, 5]: 49.67% | Pf_120h_%Growth_Rep1 [2, 6]: 15.40% | Pf_120h_%Growth_Rep2 [2, 7]: 14.90% | Tg_72h_%Growth_Rep1 [3, 8]: 105.05% | Tg_72h_%Growth_Rep2 [3, 9]: 93.22%

COc1c(O)cc2cc(C)oc(=O)c2c1O [Reticulol]
Pf_72h_%Growth_Rep1 [1, 28]: 1.99% | Pf_72h_%Growth_Rep2 [1, 29]: 0.81% | Pf_120h_%Growth_Rep1 [2, 30]: -0.78% | Pf_120h_%Growth_Rep2 [2, 31]: 4.83% | Tg_72h_%Growth_Rep1 [3, 32]: 97.11% | Tg_72h_%Growth_Rep2 [3, 33]: 97.69%
